In the experiment the target is T1, CRY1-T5 (PHR domain of CRY1) (Mus musculus, UniProt P97784).
T1 construct: CRY1-T5 (the lack of 100 amino acids from C-terminal end); expressed in transfected cells; host or cells: HEK293T (lysate)
T1 sequence (P97784 1-506 limits assumed): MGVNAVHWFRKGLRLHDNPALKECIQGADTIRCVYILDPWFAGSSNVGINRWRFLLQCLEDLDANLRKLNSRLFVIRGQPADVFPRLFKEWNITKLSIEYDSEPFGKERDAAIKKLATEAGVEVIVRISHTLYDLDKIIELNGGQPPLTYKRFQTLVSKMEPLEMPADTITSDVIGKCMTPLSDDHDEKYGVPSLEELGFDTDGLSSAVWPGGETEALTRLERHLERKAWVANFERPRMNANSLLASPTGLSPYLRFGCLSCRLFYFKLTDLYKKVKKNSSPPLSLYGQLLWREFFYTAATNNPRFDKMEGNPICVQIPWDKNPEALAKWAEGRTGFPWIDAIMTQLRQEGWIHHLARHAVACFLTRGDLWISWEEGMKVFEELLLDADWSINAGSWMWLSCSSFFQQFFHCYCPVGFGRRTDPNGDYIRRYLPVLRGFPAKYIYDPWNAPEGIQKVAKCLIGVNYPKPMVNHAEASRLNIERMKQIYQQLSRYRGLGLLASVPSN
The experiment is described as follows: Pull-down assay with biotinylated molecule, CRY1-T5. It counts as binding. The settings on record: CRY1 lacking 100 C-terminal amino acids. The method, then: 10 μg of Cry1-pcDNA4, Cry2-pcDNA4 or Cry1-T5-pcDNA4 plasmids expressing His and Myc at the C-terminal of CRYs were transfected to HEK293T cell. After 48 h of transfection cells were harvested and lysed in lysis buffer (50 mM Tris pH 7.4, 2 mM EDTA, 1 mM MgCl2, 0.2% NP-40 (v/v), 0.1% sodium deoxycholate (w/v), 1 mM sodium orthovanadate, 1 mM sodium fluoride, and protease inhibitor cocktail (Thermo Scientific)). Lysates were incubated for 10 minutes on ice then mixed gently and incubated for another 10 minutes on ice. Then lysate was centrifuged for 10 minutes at 7000 g at 4° C. 5% of the supernatant was kept for input analysis. Remaining supernatant was divided to three and mixed with 2×binding buffer (100 mM Tris-HCl pH 7.4, 300 mM NaCl, 0.2% NP-40 (v/v), 2 mM sodium orthovanadate, 2 mM sodium fluoride, and protease inhibitor) with 1:1 ratio, incubated with rotation having either of these: a) DMSO, b) biotinylated molecule, c) biotinylated molecule and the competitor for 2 h. During this period NeutrAvidin Agarose resin (Thermo Scientific) was equilibrated with lysis buffer by mixing for 5 minutes via rotation at 4° C. three times. After each mix period, resins were centrifuged at 2500 g at 4° C. for 2 minutes and supernatant was discarded. […] Pulled-down samples were analyzed via western blot.

The values that follow come from patent publication US20230104487A1, “11-(4-CHLOROPHENYL)-4-(2,3-DIHYDRO-1H-INDOLE-1-CARBONYL)-3,11-DIMETHYL-5,10,DIOXATRICYCLO[7.4.0.0,2,6,]TRIDECA-1,3,6,8-TETRAEN-13-ONE AND DERIVATIVES AS DESTABILIZER OF CRY1 FOR THE TREATMENT OF CIRCADIAN RHYTHM ASSOCIATED DISEASES AND DISORDERS” (KOC UNIVERSITESI, priority 2019, published 2023).

Structures are written as SMILES.

With `Cc1c(C(=O)N2CCc3ccccc32)oc2ccc3c(c12)C(=O)CC(C)(c1ccc(Cl)cc1)O3` (stereo not shown) [FORMULA I, 11-(4-chlorophenyl)-4-(2,3-dihydro-1H-indole-1-carbonyl)-3,11-dimethyl-5,10,dioxatricyclo[7.4.0.0,2,6,]trideca-1,3,6,8-tetraen-13-one], the “binding to PHR domain (CRY1-T5 pull-down)” value is recorded as “bound to the PHR domain”.
